From PMC6155021, “Ancient and modern anticonvulsants act synergistically in a KCNQ potassium channel binding pocket” (Nature Communications, 2018)

Target: KCNQ2/3 channels (Homo sapiens, UniProt O43525+O43526)
Test: Two-electrode voltage-clamp of KCNQ2/3 channels expressed in Xenopus laevis oocytes
Type: cell-based
Details: for Non-normalized tail current V0.5 / Normalized tail current V0.5 / Slope: KCNQ2/3; for effect on voltage dependence of KCNQ2/3 activation (initial screen): tail currents at −30 mV
Text: cRNA transcripts encoding human KCNA1, KCNQ1, KCNQ2, KCNQ3, KCNQ4, or KCNQ5 were generated by in vitro transcription using the T7 polymerase message machine kit (Thermo Fisher Scientific), after vector linearization, from cDNA sub-cloned into plasmids incorporating X. laevis β-globin 5′ and 3′ UTRs flanking the coding region to enhance translation and cRNA stability. cRNA was quantified by spectrophotometry. Mutant cDNAs were generated by site-directed mutagenesis using a QuikChange kit according to manufacturer’s protocol (Stratagene, San Diego, CA) and corresponding cRNAs prepared as above. Defolliculated stage V and VI X. laevis oocytes (Ecocyte Bioscience, Austin, TX) were injected with Kv channel α subunit cRNAs (10 ng total per oocyte). Oocytes were incubated at 16 °C in Barth’s saline solution (Ecocyte) containing penicillin and streptomycin, with daily washing, for 3–5 days prior to two-electrode voltage-clamp (TEVC) recording.
Oocytes were placed in a small-volume oocyte bath (Warner) and viewed with a dissection microscope. Chemicals were sourced from Sigma. Bath solution was (in mM): 96 NaCl, 4 KCl, 1 MgCl2, 1 CaCl2, 10 HEPES (pH 7.6). […] MTX (DMSO), sorbic acid (ethanol), and glutaconic acid (molecular grade H2O) were stored at −20 °C as 1 M stocks. Oleamide was stored as a 1 mM stock in ethanol at 4 °C. Palmitic acid was conjugated with bovine serum albumin as a 1 mM stock and stored at −20 °C. All compounds were diluted to working concentrations each experimental day. All compounds were introduced to the recording bath via gravity perfusion at a constant flow of 1 ml/min for 3 min prior to recording. Pipettes were of 1–2 MΩ resistance when filled with 3 M KCl. Currents were recorded in response to pulses between −80 and +40 mV at 20 mV intervals, or a single pulse to +40 mV, from a holding potential of −80 mV, to yield current–voltage relationships, current magnitude, and for quantifying activation rate. TEVC data analysis was performed with Clampfit10.2 (Molecular Devices) and Graphpad Prism software (GraphPad, San Diego, CA, USA); values are stated as mean ± SEM. Normalized tail currents were plotted versus prepulse voltage and fitted with a single Boltzmann function:1 g=A1-A2/1+expV12-Vy+A2, where g is the normalized tail conductance, A1 is the initial value at −∞, A2 is the final value at +∞, V1/2 is the half-maximal voltage of activation, and Vs the slope factor. Activation and deactivation kinetics were fitted with single-exponential functions.

O=C1c2ccccc2C(Cc2ccncc2)(Cc2ccncc2)c2ccccc21 [XE991, reference compound]
effect on MTX-activated KCNQ2/3 current (wash-in of MTX followed by XE991, −60 mV): rapidly inhibited

C=CCCCCC [1-Heptene]
Non-normalized tail current V0.5 (100 µM): -41.9 ± 4.9 mV
Normalized tail current V0.5 (100 µM): -41.8 ± 0.9 mV
Slope (100 µM): 5.8 ± 1.5 mV

CCC1=C(O)C(=O)CC1 [3-ethyl-2-hydroxy-2-cyclopenten-1-one]
Non-normalized tail current V0.5 (100 µM): -40.1 ± 1.9 mV
Normalized tail current V0.5 (100 µM): -41.0 ± 0.9 mV
Slope (100 µM): 5.1 ± 0.9 mV

CCCCCCCC/C=C\CCCCCCCC(N)=O [Oleamide, oleamide]
Non-normalized tail current V0.5 (0.1 µM): -41.9 ± 4.8 mV
Normalized tail current V0.5 (0.1 µM): -41.8 ± 0.6 mV
Slope (0.1 µM): 6.5 ± 0.9 mV
Non-normalized tail current V0.5 (1 µM): -41.6 ± 4.3 mV
Normalized tail current V0.5 (1 µM): -41.5 ± 0.8 mV
Slope (1 µM): 6.7 ± 1.1 mV
Non-normalized tail current V0.5 (10 µM): -39.4 ± 4.8 mV
Normalized tail current V0.5 (10 µM): -39.2 ± 0.8 mV
Slope (10 µM): 7.0 ± 0.8 mV
Non-normalized tail current V0.5 (100 µM): -41.9 ± 3.5 mV
Normalized tail current V0.5 (100 µM): -41.5 ± 0.8 mV
Slope (100 µM): 6.6 ± 0.8 mV
Non-normalized tail current V0.5 (500 µM): -37.6 ± 2.1 mV
Normalized tail current V0.5 (500 µM): -37.9 ± 0.8 mV
Slope (500 µM): 6.7 ± 0.6 mV

O=C(O)/C=C/CC(=O)O [Glutaconic Acid, glutaconic acid]
effect on voltage dependence of KCNQ2/3 activation (initial screen) (100 µM): negative-shifted
Non-normalized tail current V0.5 (0.1 µM): -40.4 ± 1.5 mV
Normalized tail current V0.5 (0.1 µM): -41.2 ± 1.4 mV
Slope (0.1 µM): 4.4 ± 3.7 mV
Non-normalized tail current V0.5 (1 µM): -41.5 ± 1.3 mV
Normalized tail current V0.5 (1 µM): -42.7 ± 1.7 mV
Slope (1 µM): 4.8 ± 2.4 mV
Non-normalized tail current V0.5 (10 µM): -42.1 ± 3.8 mV
Normalized tail current V0.5 (10 µM): -42.9 ± 2.2 mV
Slope (10 µM): 5.4 ± 2.3 mV
Non-normalized tail current V0.5 (100 µM): -40.8 ± 3.8 mV
Normalized tail current V0.5 (100 µM): -40.7 ± 1.2 mV
Slope (100 µM): 5.4 ± 1.7 mV
Non-normalized tail current V0.5 (500 µM): -38.5 ± 5.4 mV
Normalized tail current V0.5 (500 µM): -37.7 ± 0.9 mV
Slope (500 µM): 6.8 ± 0.9 mV

CCCCCCCCCCCCCCCC(=O)O [Palmitic Acid, palmitic acid]
effect on voltage dependence of KCNQ2/3 activation (initial screen) (30 µM): negative-shifted
Non-normalized tail current V0.5 (0.1 µM): -43.6 ± 5.0 mV
Normalized tail current V0.5 (0.1 µM): -44.3 ± 1.7 mV
Slope (0.1 µM): 7.9 ± 1.7 mV
Non-normalized tail current V0.5 (1 µM): -45.6 ± 5.5 mV
Normalized tail current V0.5 (1 µM): -46.6 ± 1.7 mV
Slope (1 µM): 7.4 ± 1.7 mV
Non-normalized tail current V0.5 (3 µM): -45.1 ± 5.4 mV
Normalized tail current V0.5 (3 µM): -46.5 ± 1.1 mV
Slope (3 µM): 7.1 ± 1.1 mV
Non-normalized tail current V0.5 (10 µM): -43.1 ± 4.9 mV
Normalized tail current V0.5 (10 µM): -44.9 ± 0.9 mV
Slope (10 µM): 6.8 ± 0.9 mV
Non-normalized tail current V0.5 (30 µM): -43.5 ± 4.9 mV
Normalized tail current V0.5 (30 µM): -44.3 ± 1.4 mV
Slope (30 µM): 7.0 ± 1.1 mV

C/C=C/C=C/C(=O)O [Sorbic Acid, sorbic acid]
Non-normalized tail current V0.5 (100 µM): -39.9 ± 3.0 mV
Normalized tail current V0.5 (100 µM): -39.9 ± 0.9 mV
Slope (100 µM): 4.2 ± 0.9 mV
